Reference: ChEMBL document CHEMBL1128766, “The synthesis and lactamase inhibitory activity of 6-(carboxymethylene)penicillins and 7-(carboxymethylene)cephalosporins” (Bioorg Med Chem Lett, 1995)
pIC50: −log10 of the molar value.

How the values were obtained:
Escherichia coli [1] = test: […] antibacterial activity (synergistic study) against Escherichia coli TEM-1; format: functional
Enterobacter cloacae [2] = test: […] antibacterial activity (synergistic study) against Enterobacter cloacae P99; format: functional
Escherichia coli [3] = test: […] antibacterial activity (synergistic study) against Escherichia coli OXA-1; format: functional
Staphylococcus aureus = test: […] antibacterial activity (synergistic study) against Staphylococcus aureus ATCC 29213; format: functional
Enterobacter cloacae [4] = test: […] antibacterial activity (synergistic study) against Enterobacter cloacae 12368; format: functional
Escherichia coli [5] = test: […] antibacterial activity (synergistic study) against Escherichia coli TEM-2; format: functional
Beta-lactamase [6] = target: T1, Beta-lactamase (Enterobacter cloacae, UniProt P05364)
T1 sequence (P05364 whole entry): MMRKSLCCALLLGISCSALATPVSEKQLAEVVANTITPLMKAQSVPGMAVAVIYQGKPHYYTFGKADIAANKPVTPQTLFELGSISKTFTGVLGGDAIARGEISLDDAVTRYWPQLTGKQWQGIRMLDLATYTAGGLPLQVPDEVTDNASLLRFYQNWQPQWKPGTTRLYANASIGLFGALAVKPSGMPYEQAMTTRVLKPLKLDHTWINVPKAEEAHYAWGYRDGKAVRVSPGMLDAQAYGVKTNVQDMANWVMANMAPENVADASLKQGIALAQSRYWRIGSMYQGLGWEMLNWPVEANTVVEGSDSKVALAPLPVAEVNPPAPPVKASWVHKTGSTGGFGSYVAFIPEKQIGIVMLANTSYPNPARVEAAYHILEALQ
Description: Inhibitory activity against beta-Lactamase enzyme derived from Enterobacter cloacae P99

Beta-lactamase [7] = target: T1, Beta-lactamase; remark: listed apart in the source
Description: Inhibitory activity against beta-Lactamase enzyme derived from Enterobacter cloacae SC 12368 E-2

Beta-lactamase TEM = Beta-lactamase TEM (Escherichia coli, UniProt P62593); test: Inhibitory activity against beta-Lactamase enzyme derived from Escherichia coli WC3310 TEM-2
Chain of Beta-lactamase TEM (P62593 whole entry): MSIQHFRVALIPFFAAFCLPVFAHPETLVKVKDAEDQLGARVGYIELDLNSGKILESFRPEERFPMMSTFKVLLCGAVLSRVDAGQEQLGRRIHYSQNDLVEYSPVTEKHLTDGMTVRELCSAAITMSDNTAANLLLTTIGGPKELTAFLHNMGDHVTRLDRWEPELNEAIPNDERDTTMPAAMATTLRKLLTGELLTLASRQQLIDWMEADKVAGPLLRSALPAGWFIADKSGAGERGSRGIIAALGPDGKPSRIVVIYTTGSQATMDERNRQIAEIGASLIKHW

| SMILES | MIC (Escherichia coli [1]) [µg/mL] | MIC (Enterobacter cloacae [2]) [µg/mL] | MIC (Escherichia coli [3]) [µg/mL] | MIC (Staphylococcus aureus) [µg/mL] | MIC (Enterobacter cloacae [4]) [µg/mL] | MIC (Escherichia coli [5]) [µg/mL] | pIC50 (Beta-lactamase [6]) | pIC50 (Beta-lactamase [7]) | pIC50 (Beta-lactamase TEM) |
| --- | --- | --- | --- | --- | --- | --- | --- | --- | --- |
| CC(=O)OCC1=C(C(=O)[O-])N2C(=O)/C(=C/C(=O)OC(C)(C)C)[C@H]2S(=O)(=O)C1.[Na+] | > 128 | > 128 | > 128 | 4 | > 128 | > 128 |  |  |  |
| CC(C)(C)OC(=O)/C=C1/C(=O)N2[C@@H](C(=O)[O-])C(C)(C)S(=O)(=O)[C@H]12.[Na+] | > 128 | > 128 | > 128 | > 128 | > 128 | > 128 | 5.39 | 4.87 | 6.87 |
| CC1(C)[C@H](C(=O)[O-])N2C(=O)/C(=C/C(=O)[O-])[C@H]2S1(=O)=O.[Na+].[Na+] | > 128 | > 128 | > 128 | > 128 | > 128 | > 128 | 7.35 | 7.04 | 6.92 |
| COC(=O)/C=C1/C(=O)N2[C@@H](C(=O)[O-])C(C)(C)S(=O)(=O)[C@H]12.[Na+] | > 128 | > 128 | > 128 | > 128 | > 128 | > 128 | 6.81 | 6.21 | 6.51 |
| CCN1CCN(C(=O)NC(C(=O)N[C@H]2C(=O)N3[C@H]2SC(C)(C)[C@H]3C(=O)O)c2ccccc2)C(=O)C1=O.COC(=O)/C=C1/C(=O)N2[C@@H](C(=O)[O-])C(C)(C)S(=O)(=O)[C@H]12.[Na+] (some centres undefined) | 64 | 128 | 16 | 1 | 16 | 128 |  |  |  |
| CC(=O)OCC1=C(C(=O)[O-])N2C(=O)/C(=C/C(=O)[O-])[C@H]2S(=O)(=O)C1.[Na+].[Na+] | > 128 | > 128 | > 128 | 16 | > 128 | > 128 | < 4.70 | < 4.70 | 6.40 |
| CC(C)(C)OC(=O)/C=C1/C(=O)N2[C@@H]1SC(C)(C)[C@@H]2C(=O)O |  |  |  |  |  |  | 5.05 | < 4.70 | < 4.70 |
| COC(=O)/C=C1/C(=O)N2C(C(=O)O)=C(COC(C)=O)CS[C@H]12 |  |  |  |  |  |  | < 4.70 | < 4.70 | < 4.70 |
| CC(=O)/C=C1/C(=O)N2[C@@H]1SC(C)(C)[C@@H]2C(=O)O |  |  |  |  |  |  | 6.44 | 5.27 | 8.52 |
| COC(=O)/C=C1/C(=O)N2[C@@H]1SC(C)(C)[C@@H]2C(=O)O |  |  |  |  |  |  | < 4.70 | < 4.70 | < 4.70 |
| COC(=O)/C=C1/C(=O)N2C(C(=O)[O-])=C(COC(C)=O)CS(=O)(=O)[C@H]12.[Na+] | > 128 | > 128 | > 128 | > 128 | > 128 | > 128 | < 4.70 | < 4.70 | 7.43 |
| C=C=C1C(=O)N2C(C(=O)O)=C(COC(C)=O)CS(=O)(=O)[C@H]12 |  |  |  |  |  |  | 6.89 | 6.59 | < 4.70 |
| CC(=O)OCC1=C(C(=O)O)N2C(=O)/C(=C/C(=O)O)[C@H]2SC1 |  |  |  |  |  |  | < 4.70 | < 4.70 | < 4.70 |
| CC1(C)[C@H](C(=O)[O-])N2C(=O)/C(=C/C(=O)[O-])[C@H]2S1(=O)=O.CCN1CCN(C(=O)NC(C(=O)N[C@H]2C(=O)N3[C@H]2SC(C)(C)[C@H]3C(=O)O)c2ccccc2)C(=O)C1=O.[Na+].[Na+] (some centres undefined) | 32 | 128 | 16 | 4 | 16 | 64 |  |  |  |
| CC(=O)OCC1=C(C(=O)[O-])N2C(=O)/C(=C/C(=O)OC(C)(C)C)[C@H]2S(=O)(=O)C1.CCN1CCN(C(=O)NC(C(=O)N[C@H]2C(=O)N3[C@H]2SC(C)(C)[C@H]3C(=O)O)c2ccccc2)C(=O)C1=O.[Na+] (some centres undefined) | 64 | 128 | 64 | 4 | 16 | 128 |  |  |  |
| C=C1C(=O)N2C(C(=O)O)=C(COC(C)=O)CS(=O)(=O)[C@H]12 |  |  |  |  |  |  | 7.60 | 7.60 | 6.10 |
| CC(=O)OCC1=C(C(=O)[O-])N2C(=O)/C(=C/C(=O)[O-])[C@H]2S(=O)(=O)C1.CCN1CCN(C(=O)NC(C(=O)N[C@H]2C(=O)N3[C@H]2SC(C)(C)[C@H]3C(=O)O)c2ccccc2)C(=O)C1=O.[Na+].[Na+] (some centres undefined) | 64 | 128 | 64 | 4 | 32 | 128 |  |  |  |
| CC1(C)S[C@@H]2/C(=C\C(=O)O)C(=O)N2[C@H]1C(=O)O |  |  |  |  |  |  | 4.86 | < 4.70 | < 4.70 |
| CCN1CCN(C(=O)NC(C(=O)N[C@H]2C(=O)N3[C@H]2SC(C)(C)[C@H]3C(=O)O)c2ccccc2)C(=O)C1=O.COC(=O)/C=C1/C(=O)N2C(C(=O)[O-])=C(COC(C)=O)CS(=O)(=O)[C@H]12.[Na+] (some centres undefined) | 32 | 128 | 64 | 4 | 16 | 64 |  |  |  |
| CC(C)(C)OC(=O)/C=C1/C(=O)N2[C@@H](C(=O)[O-])C(C)(C)S(=O)(=O)[C@H]12.CCN1CCN(C(=O)NC(C(=O)N[C@H]2C(=O)N3[C@H]2SC(C)(C)[C@H]3C(=O)O)c2ccccc2)C(=O)C1=O.[Na+] (some centres undefined) | 128 | 128 | 32 | 2 | 32 | > 128 |  |  |  |
| C[C@]1(Cn2ccnn2)[C@H](C(=O)O)N2C(=O)C[C@H]2S1(=O)=O (single isomer, unassigned) [TAZOBACTAM] | > 128 | > 128 | > 128 | 64 | > 128 | > 128 |  |  |  |
| CCN1CCN(C(=O)N[C@@H](C(=O)NC2C(=O)N3C2SC(C)(C)C3C(=O)O)c2ccccc2)C(=O)C1=O.C[C@]1(Cn2ccnn2)[C@H](C(=O)O)N2C(=O)C[C@H]2S1(=O)=O (single isomer, unassigned; form 1) | 2 | 16 | 16 | 1 | 16 | 8 |  |  |  |
| CCN1CCN(C(=O)N[C@@H](C(=O)NC2C(=O)N3C2SC(C)(C)C3C(=O)O)c2ccccc2)C(=O)C1=O (single isomer, unassigned; form 2) [PIPERACILLIN] | > 128 | > 128 | 64 | 4 | 16 | > 128 |  |  |  |
